Measured values as given in publication PMC7515946, “Targeting of Perforin Inhibitor into the Brain Parenchyma Via a Prodrug Approach Can Decrease Oxidative Stress and Neuroinflammation and Improve Cell Survival” (Molecular Neurobiology, 2020).
Non-standard residues stand in square brackets, D forms with d. No end group written: not given here. Sta = CC(C)C[C@H](N)[C@@H](O)CC(=O)O

Assays:
[1] = tested on: MCF-7 human breast adenocarcinoma cells; assay: Cell viability of MCF-7 cells with cisplatin co-treatment (resazurin); assay type: cell-based; conditions: 100 μM, 72 h incubation
[2] = target: T1, LAT1 (Mus musculus, UniProt Q9Z127); assay: Ability to bind to LAT1: inhibition of [14C]-L-leucine uptake in astrocytes; assay type: cell-based; conditions: mouse primary astrocytes, 0.76 μM [14C]-L-leucine, 5 min, 37 °C
T1 construct: endogenous in cells; host or cells: mouse primary astrocytes (C57BL/6JOlaHsd), cortex and hippocampi
Experimental: For the transporter-binding studies, the astrocytes were seeded on 24-well plates with a density of 10 × 10^4 cells/well 3 days before the experiments. After removal of the culture medium, the cells were carefully washed with pre-warmed HBSS (Hank’s balanced salt solution) containing choline chloride (125 mM), KCl (4.8 mM), MgSO4 (1.2 mM), KH2PO4 (1.2 mM), CaCl2 (1.3 mM), glucose (5.6 mM), and HEPES (25 mM) adjusted to pH 7.4 with 1 M NaOH. The cells were pre-incubated with 500 μL of pre-warmed HBSS at 37 °C for 5 min before the experiments. To study the ability of studied compounds to inhibit the uptake of a known LAT1 substrate, the cells were incubated at 37 °C for 5 min with an uptake buffer (HBSS, 250 μL) containing 0.76 μM (0.25 mCi/mL or […]) of [^14C]-L-leucine (PerkinElmer, Waltham, MA, USA) and 0.1–1000 μM of studied compound (or HBSS as blank). After incubation, the uptake was stopped by adding 500 μL of ice-cold HBSS, and the cells were washed two times with ice-cold HBSS (2 × 500 μL). The cells were then lysed with 500 μL of NaOH (0.1 M) for 60 min and the lysate was mixed with 3.5 mL of Emulsifier-Safe cocktail (Ultima Gold, PerkinElmer, Waltham, MA, USA). The radioactivity in the cells was measured by liquid scintillation counting (MicroBeta^2 counter, PerkinElmer Waltham, MA, USA). Half of the maximum inhibitory concentration (IC50) values were calculated by nonlinear regression analysis (fitting the curve to log (concentration) vs. remaining normalized viability).

[3] = target: T2, purified human β-site amyloid precursor protein (APP) cleaving enzyme 1 (BACE1) (Homo sapiens, UniProt P56817); assay: BACE1 FRET inhibition assay; assay type: biochemical; conditions: 0.25 μM, 30 min
T2 construct: purchased AnaSpec, Inc. (Fremont, CA, USA), SensoLyte 520 BACE1 Assay kit
Source text: A fluorometric assay was used to screen the inhibitory effect of the studied compounds on purified human β-site amyloid precursor protein (APP) cleaving enzyme 1 (BACE1) using a fluorescence resonance energy transfer (FRET) peptide technique (SensoLyte© 520 BACE1 Assay kit, AnaSpec, Inc., Fremont, CA, USA) according to the manufacturer’s protocol. […] The sequence of the FRET peptide has been derived from the β-secretase cleavage site of β-amyloid precursor protein (APP) with Swedish mutation, which enhances β-secretase to process APP resulting in an early onset of AD. Thus, active β-secretase cleaved the FRET substrate into two separate fragments resulting in the release of HiLyte™ Fluor 488 fluorescence that was measured by the Envision plate reader (EnVision, Perkin Elmer, Waltham, MA, USA) at λex 490 nm and λem 520 nm.

[4] = tested on: caspase-3/-7; assay: Caspase-3/-7 in brain of LPS-induced neuroinflammation mice; assay type: in vivo, mouse; conditions: LPS 250 μg/kg i.p. for 3 days, relative to control
Experimental: Adult male C57BL/6JOlaHsd mice (Jackson Laboratories, Bar Harbor, ME, USA) were supplied by Envigo (Venray, Netherlands). Mice were housed in stainless steel cages on a 12-h light (07:00–19:00) and 12-h dark (19:00–07:00) cycle at an ambient temperature of 22 ± 1 °C with a relative humidity of 50–60%. All experiments were carried out during the light phase. Tap water and food pellets (Lactamin R36; Lactamin AB, Södertälje, Sweden) were available ad libitum. Neuroinflammation was induced by the treatment with LPS 250 μg/kg i.p once per day for 3 consequent days followed by decapitation on the 4th day. The animals were allocated to one of four treatment groups (n = 6 per group): (1) LPS-treated mice, (2) mice treated with LPS and the studied compound (30 μmol/kg; i.v.) for 3 days and 120 min before the decapitation on the 4th day (preventative efficacy), (3) mice treated with LPS for 3 days and with the studied compound (30 μmol/kg; i.v.) only for the last 2 days, and (4) control mice treated with 0.9% NaCl solution i.p. once per day for 3 days. After decapitation, mouse blood and brain samples were collected. […] The plasma layer was centrifuged again at 12,000 × g to remove the platelets. Plasma was stored at − 80 °C until analysis. The brains were snap-frozen in liquid nitrogen and stored at − 80 °C until analysis.
The effects of the compounds on the enzyme activity of caspase-3 and caspase-7 were evaluated from the snap-frozen mouse brain. Pieces of tissues (n = 3) were homogenized in 50 mM Tris–HCl (pH 7.4) 1:10 (w/v) with a bead mill homogenizer. […] The enzyme activity was measured with an Apo-ONE Homogenous Caspase-3/7 Assay kit (Promega Corporation, Madison, WI, USA) according to the manufacturer’s instruction. The assay was performed on 96-well plates, each sample having 3 replicates. Each of the sample wells contained 100 μL of the previously collected supernatant and 100 μL of the prepared Apo-ONE reagent. The blank measurement was carried out with the homogenization buffer and Apo-ONE reagent. Once all the samples and reagents were pipetted in the wells, the plate was carefully shaken for 30 s and left for incubation in dark at room temperature. The fluorescence was measured after the incubation with an EnVision 2104 Multilabel Reader (PerkinElmer, Waltham, MA, USA), with λex 499 nm and λem 521 nm. The measurement was repeated on multiple time points between 0.5 and 24 h.

[5] = tested on: prostaglandin E2 (PGE2) production; assay: Brain PGE2 production in LPS-induced mice; assay type: in vivo, mouse; conditions: LPS 250 μg/kg per day for 3 days; control 5.72 ± 1.83
Experimental: Adult male C57BL/6JOlaHsd mice (Jackson Laboratories, Bar Harbor, ME, USA) were supplied by Envigo (Venray, Netherlands). Mice were housed in stainless steel cages on a 12-h light (07:00–19:00) and 12-h dark (19:00–07:00) cycle at an ambient temperature of 22 ± 1 °C with a relative humidity of 50–60%. All experiments were carried out during the light phase. Tap water and food pellets (Lactamin R36; Lactamin AB, Södertälje, Sweden) were available ad libitum. Neuroinflammation was induced by the treatment with LPS 250 μg/kg i.p once per day for 3 consequent days followed by decapitation on the 4th day. […]
The effects of the studied compounds to inhibit PGE2 production in the mouse brain were evaluated after LPS-induction as curative and preventative treatments. […] The data were acquired using the Agilent MassHunter Workstation software (version B.06.00) and processed with the Quantitative Analysis (B.07.00) software. The lower limit of quantification (LLOQ) for PGE2 was 1 nM.

T1 sequence (Q9Z127 whole entry): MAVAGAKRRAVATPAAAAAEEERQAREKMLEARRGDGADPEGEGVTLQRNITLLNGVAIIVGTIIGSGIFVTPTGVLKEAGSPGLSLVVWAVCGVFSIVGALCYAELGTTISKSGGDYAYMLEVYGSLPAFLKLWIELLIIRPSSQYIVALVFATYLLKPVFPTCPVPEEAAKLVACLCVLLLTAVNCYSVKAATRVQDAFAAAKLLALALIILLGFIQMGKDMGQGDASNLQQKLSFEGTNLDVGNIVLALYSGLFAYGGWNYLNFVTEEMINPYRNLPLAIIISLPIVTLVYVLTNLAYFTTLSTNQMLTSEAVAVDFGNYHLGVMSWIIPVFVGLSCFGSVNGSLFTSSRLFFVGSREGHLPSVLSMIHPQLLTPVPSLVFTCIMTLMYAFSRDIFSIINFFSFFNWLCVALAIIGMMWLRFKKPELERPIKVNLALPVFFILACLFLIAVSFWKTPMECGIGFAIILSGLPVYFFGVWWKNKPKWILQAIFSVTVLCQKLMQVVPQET
T1 sequence (P10852 whole entry partner): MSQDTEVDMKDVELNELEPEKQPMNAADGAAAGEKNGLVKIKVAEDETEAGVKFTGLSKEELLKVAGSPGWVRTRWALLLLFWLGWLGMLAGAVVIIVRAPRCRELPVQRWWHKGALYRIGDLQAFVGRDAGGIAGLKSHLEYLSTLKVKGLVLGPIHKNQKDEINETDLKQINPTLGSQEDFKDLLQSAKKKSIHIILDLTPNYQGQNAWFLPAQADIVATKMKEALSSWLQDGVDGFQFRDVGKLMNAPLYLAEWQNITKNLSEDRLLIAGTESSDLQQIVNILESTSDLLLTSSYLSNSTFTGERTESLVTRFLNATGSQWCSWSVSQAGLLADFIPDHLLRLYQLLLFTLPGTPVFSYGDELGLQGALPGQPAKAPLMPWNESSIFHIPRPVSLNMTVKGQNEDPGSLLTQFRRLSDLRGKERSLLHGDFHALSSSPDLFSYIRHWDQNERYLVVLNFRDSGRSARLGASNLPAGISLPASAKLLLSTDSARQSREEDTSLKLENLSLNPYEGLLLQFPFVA
T2 sequence (P56817 22-501 limits assumed): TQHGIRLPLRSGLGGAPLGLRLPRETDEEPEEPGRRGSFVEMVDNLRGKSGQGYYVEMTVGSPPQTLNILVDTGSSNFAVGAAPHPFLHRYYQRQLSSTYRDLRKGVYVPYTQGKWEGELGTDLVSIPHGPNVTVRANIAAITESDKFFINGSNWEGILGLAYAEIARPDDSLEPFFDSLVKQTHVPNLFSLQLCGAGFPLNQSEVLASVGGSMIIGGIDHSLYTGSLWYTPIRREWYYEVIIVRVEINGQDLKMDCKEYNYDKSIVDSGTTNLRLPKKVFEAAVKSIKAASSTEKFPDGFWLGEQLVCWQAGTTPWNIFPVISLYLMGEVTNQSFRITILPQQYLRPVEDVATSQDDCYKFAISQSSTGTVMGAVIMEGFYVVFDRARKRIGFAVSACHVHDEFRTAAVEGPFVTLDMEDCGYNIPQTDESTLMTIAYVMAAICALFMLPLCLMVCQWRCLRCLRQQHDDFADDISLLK

In the case of `N.N.[Cl][Pt][Cl]` [cisplatin, reference compound], the “Inhibition of MCF-7 cell growth” value [1] is reported as 51%.
Molecule `CNC(=O)COc1ccc(-c2c(C#N)c(NC(=O)c3cccc(C[C@H](N)C(=O)O)c3)n3c(nc4ccccc43)c2C#N)cc1` [LAT1 inhibitor, KMH-233, reference compound] has an IC50 [2] of 14.4 ± 1.2 µM and an IC50 ([2]; listed as LAT1-inhibitor) of 14 µM.
In the case of “KTEEISEVN-Sta-VAEF-NH2 (KTEEISEVN[Sta]VAEF-NH2; N-terminus assumed; SMILES CC[C@H](C)[C@H](NC(=O)[C@H](CCC(=O)O)NC(=O)[C@H](CCC(=O)O)NC(=O)[C@@H](NC(=O)[C@@H](N)CCCCN)[C@@H](C)O)C(=O)N[C@@H](CO)C(=O)N[C@@H](CCC(=O)O)C(=O)N[C@H](C(=O)N[C@@H](CC(N)=O)C(=O)N[C@@H](CC(C)C)[C@@H](O)CC(=O)N[C@H](C(=O)N[C@@H](C)C(=O)N[C@@H](CCC(=O)O)C(=O)N[C@@H](Cc1ccccc1)C(N)=O)C(C)C)C(C)C) [BACE1 inhibitor, reference compound]”, the “Inhibition of BACE1 activity” value [3] is reported as “ca. 86%”.
With lipopolysaccharide [LPS] the “Brain caspase-3/-7 levels, LPS alone” value [4] was 137% and the “Brain PGE2 production, LPS alone” value [5] was 16.56 ± 2.45 nmol of PGE2/mg tissue.
